On the set-up of data set [1]: species or system patients. The settings on record: human, in vivo; for burden estimate from dry mouth / overall burden estimate: 85 days. The text has this:
The systems and methods of the present invention are now described with reference to specific examples of clinical trials and the adverse event data generated in connection therewith, and stored in a database. […] 2015]. DOI: 10.1177/1756287215589250) with a β3 adrenergic receptor agonist and an anti-muscarinic agent. General names for each drug treatment are used herein.
First described is the data analysis involved with implementation of the invention. More particularly, the application of the methodology involves the use of a clinical study database with individual data entries for TEAEs per patient per day. The presence of TEAEs may be plotted against the study day, such that if a patient reported a TEAE from Days 3 to 5, this TEAE was considered present on Days 3, 4 and 5. Also, if an end date was not present in the database, or a TEAE was ongoing, the last study day of the patient was taken as the end day of the TEAE. […] The addition of coloring that corresponds with TEAE severity allows easy discrimination of TEAEs of differing severity in the graph.
In order to visually represent the safety/TEAE burden experienced by a patient, varied weighting may be applied to TEAE severity in each arm in a consistent manner. The graph may, therefore, display the number of weighted TEAEs per day. For purposes of example, in the graphs described herein, TEAEs that were mild, moderate, severe, life threatening/disabling and related to death were weighted to represent 1×, 2×, 3×, 4× and 5×TEAEs per event per day, respectively. Further, the investigator may indicate the seriousness of the TEAE.
An area under the curve (AUC) analysis can be performed in conjunction with the burden of therapy methodology to quantitatively compare potential differences in mean events per day between study arms. This can be performed in conjunction with weighting of events if required. An AUC analysis may be useful in studies that have a similar presence of events in each arm, as an estimate of the mean weighted events per day for each arm can be compared using statistical tools.
The AUC for each individual subject can also be calculated. The AUC represents the total burden that an individual subject experienced during the trial. The AUC is the sum of the burden, for all burdens of an individual subject. Thus, the AUC of subject i is burdeni=Σj=1^t^i burdenij, where ti is the total number of study days of subject i.
The AUC can be used in an analysis of covariance (ANCOVA) as a response variable and the impact of different covariates and factors on the AUC can be investigated. The obvious factor is treatment, but one can include medication history, age, gender or BMI as […] in the ANCOVA analysis.
To analyze the profiles with an ANCOVA, the AUC for dry mouth of each subject was derived. The AUC was then used as the dependent variable in the model. […] It is likely that a negative past experience with anti-muscarinics could influence the recording of a specific adverse event like dry-mouth. In the statistical (ANCOVA) model, prior anti-muscarinics dissatisfaction was added next to treatment as explanatory variable. […] Prior anti-muscarinic dissatisfaction had also a low p-value (p=0.007), meaning that subjects with a negative experience using anti muscarinics also reported more dry mouths. In this study, dry mouth was reported by 29 patients (3.1%) in the adrenergic agonist group and 54 patients (5.8%) in the antimuscarinic group (Batista et al., 2015). An analysis of patients who reported dry mouth was performed to investigate whether there was a difference between arms and approximately 1.5-2.0% of patients reported dry mouth in the antimuscarinic group from Days 17-85 (FIGS. 3B and 4B).

For data set [2] the following is noted: cited from earlier work.
[3] abbreviates: overactive bladder study, whole study.

Where two headings read alike, the source gives them in different places.

Turning to `O=C(O[C@H]1CN2CCC1CC2)N1CCc2ccccc2[C@@H]1c1ccccc1` [antimuscarinic agent, solifenacin], in data set [1], the “patients reporting dry mouth per day” value is given as 1.5-2.0%, the “burden estimate from dry mouth” value is on record as 5.7 and the overall burden estimate is 19.6. Besides, in data set [1] (10 day), the “difference in the proportion of patients with TEAEs” value is recorded as 0.1%. The “difference in the proportion of patients with TEAEs” value in data set [1] (85 day) is given as 5%.

`Nc1nc(CC(=O)Nc2ccc(CCNC[C@H](O)c3ccccc3)cc2)cs1` [β3 adrenergic receptor agonist, mirabegron]: in data set [1], the “burden estimate from dry mouth” value was 2.9 and the overall burden estimate is given as 15.1. Further, in data set [2] (human, in vivo), the “number of patients reporting dry mouth” value is reported as 29 patients and the “patients reporting dry mouth (%)” value is 3.1%. In data set [2] (setting [3]), the “patients with TEAEs (%)” value is recorded as 29.3% and the “total number of patients with TEAEs” value is on record as 274.

These data come from patent US20170032106A1, “System and Method for Analyzing Adverse Event Data” (Astellas Pharma Europe Ltd., priority 2015, published 2017).
